Assay results from patent US20260191861A1, “INFLAMMASOME AND VEGF INHIBITION FOR RETINAL VASCULAR DISEASES” (University of Virginia Patent Foundation, priority 2022, published 2026).

Assays:
[1] = tested on: participants with diabetic macular edema; test: Systemic and ocular adverse events in the lamivudine versus placebo trial; assay type: in vivo, human
Excerpt: If the participant developed high-risk proliferative diabetic retinopathy or had to undergo any ocular surgery during the study period, they would be excluded. Patients were monitored for adverse events by the assessing physician, and new laboratory tests could be performed at the physician's discretion.
Secondary outcomes included the change in central subfield thickness, the percentage of eyes with an improvement in VALS of 15 or more, the correlation between improvements in visual acuity and central subfield thickness, and systemic and ocular adverse events. Change in central subfield thickness was estimated using mixed-effects models, similar to the VALS analysis. To analyze a VALS improvement of at least 15 letters, logistic regression using generalized estimating equations (GEEs) was specified with an exchangeable correlation matrix. Model-based contrasts were estimated to make pairwise treatment comparisons.

caspase-1 = test: Rhegmatogenous retinal detachment (RRD) model: retinal caspase-1 cleavage by immunoblot; assay type: in vivo, mouse; details: day 3 RRD, equimolar IP doses twice daily (K-9H 60 mg/kg, 3TC 50 mg/kg)
Protocol: (§1) All experiments involving animals were approved by the University of Virginia Institutional Animal Care and Use Committee (IACUC) and adhered to the Association for Research in Vision and Ophthalmology (ARVO) Statement for the Use of Animals in Ophthalmic and Vision Research. Animal subjects were male and female mice aged 6 to 10 weeks. Wild type C57BL/6J mice were obtained from the Jackson Laboratory (Bar Harbor, ME, USA). To anesthetize mice for study procedures, ketamine hydrochloride (100 mg/kg; Ft. Dodge Animal Health, Overland Park, KS, USA) and xylazine (10 mg/kg; Phoenix Scientific, St. Joseph, MO, USA) were delivered by intraperitoneal (IP) injection. Pupils were dilated with topical 1% tropicamide and 2.5% phenylephrine (Alcon Laboratories, Ft. Worth, TX, USA).
(§2) RRD model was established by subretinal injection (SRI) of 3 μl 1% carboxymethyl cellulose (CMC; Refresh Liquigel, Allergan, Irvine, CA, USA).
(§3) NRTIs and K-9 were delivered via intraperitoneal (IP) injection in equimolar amounts. […] Kamuvudine K-9 (3-methyl-3TC, MW=273 g/mol) was administered either at a low dose (K-9L; 90 mg/kg daily) or a high dose (K-9H; 60 mg/kg twice daily, equimolar to NRTI doses). IP injection of phosphate buffered saline (PBS) was used as control.
Retinal tissue was extracted and lysed by sonication in radioimmunoprecipitation assay (RIPA) buffer (MilliporeSigma, Darmstadt, Germany). The Pierce BCA Protein Assay Kit (ThermoFisher Scientific, Waltham, MA, USA) was used to determine protein concentrations of interest. Samples were prepared that contained equal concentrations of total protein (10-100 μg). Protein samples were resolved by SDS-PAGE and transferred onto Immobilon-FL PVDF membranes (Millipore, Billerica, MA, USA). Membranes were blocked in Odyssey Blocking Buffer (PBS) for 1 hour at room temperature, and then incubated overnight with primary antibody at 4° C. Across study experiments, the following antibodies were used: anti-mouse caspase-1 (1:1000; AG-20B-0042; AdipoGen Life Sciences, San Diego, CA, USA), and anti-mouse GAPDH (1:1000; 2118; Cell Signaling, Danvers, MA, USA). […]

[2] = tested on: photoreceptors (TUNEL+ cells in the ONL); test: RRD model: TUNEL assay of the retinal outer nuclear layer; assay type: in vivo, mouse; details: day 3 RRD, equimolar IP doses twice daily (K-9H 60 mg/kg, 3TC 50 mg/kg)
Protocol: as §1, §2, §3
Retinal cross cryosections at a thickness of 10 μm were stained with TUNEL (TdT-mediated dUTP nick-end labeling) using the In Situ Cell Death Detection Kit (Roche Diagnostics, Indianapolis, IN, USA) according to the manufacturer's′ instructions. The sections were wet-mounted with ProLong anti-fade reagent with DAPI (P36935, ThermoFisher Scientific, Waltham, MA, USA) and visualized using an A1R laser confocal microscope (Nikon, Tokyo, Japan). Fourteen representative sections, including the optic nerve, were used per treatment group. To calculate the number of TUNEL+ cells in the outer nuclear layer (ONL), the retina analysis toolkit of ImageJ (2.1.0; NIH, Bethesda, MD, USA) was used.

[3] = ocular adverse event, of 16 eyes
[4] = systemic adverse event, of 10 subjects

`Nc1ccn([C@@H]2CS[C@H](CO)O2)c(=O)n1` [Lamivudine] was tested, and the “Endophthalmitis - (%)” value [1, 3] was “(0%)”, the “Endophthalmitis - N” value [1, 3] was 0 and the “Increase in intraocular pressure ≥10 mm Hg from baseline - (%)” value [1, 3] was “(0%)”. The “Increase in intraocular pressure ≥10 mm Hg from baseline - N” value [1, 3] was 0, the “Intraocular inflammation* - (%)” value [1, 3] was “(0%)” and the “Intraocular inflammation* - N” value [1, 3] was 0. The “Retinal detachment - (%)” value [1, 3] was “(0%)”, the “Retinal detachment - N” value [1, 3] was 0 and the “Subconjunctival hemorrhage - (%)” value [1, 3] was “(18.8%)”. For the same compound, the “Subconjunctival hemorrhage - N” value [1, 3] was 3, the “Traumatic cataract - (%)” value [1, 3] was “(0%)” and the “Traumatic cataract - N” value [1, 3] was 0. The “Vitreous hemorrhage - (%)” value [1, 3] was “(0%)”, the “Vitreous hemorrhage - N” value [1, 3] was 0 and the “Abdominal pain - (%)” value [1, 4] was “(0%)”. The “Abdominal pain - N” value [1, 4] was 0, the “Alopecia - (%)” value [1, 4] was “(0%)” and the “Alopecia - N” value [1, 4] was 0. The “Arthralgia - (%)” value [1, 4] was “(0%)”, the “Arthralgia - N” value [1, 4] was 0 and the “Diarrhea - (%)” value [1, 4] was “(10%)”. The “Diarrhea - N” value [1, 4] was 1, the “Disphoresis - (%)” value [1, 4] was “(10%)” and the “Disphoresis - N” value [1, 4] was 1. For the same compound, the “Fatigue - (%)” value [1, 4] was “(10%)”, the “Fatigue - N” value [1, 4] was 1 and the “Headache - (%)” value [1, 4] was “(20%)”. For the same compound, the “Headache - N” value [1, 4] was 2, the “Myalgia - (%)” value [1, 4] was “(0%)” and the “Myalgia - N” value [1, 4] was 0. The “Nausea or vomiting - (%)” value [1, 4] was “(20%)”, the “Nausea or vomiting - N” value [1, 4] was 2 and the “Pruritus - (%)” value [1, 4] was “(20%)”. For the same compound, the “Pruritus - N” value [1, 4] was 2, the “Skin rash - (%)” value [1, 4] was “(0%)” and the “Skin rash - N” value [1, 4] was 0. The ocular adverse events ([1]; week 4) was “no ocular adverse events”, the “subconjunctival hemorrhage after intravitreous injection” value ([1]; week 8) was “three” and the “degree of suppression of caspase-1 activation” value (caspase-1) was 52%+8%. The “degree of photoreceptor protection” value [2] was 38%+10%.
